Experimental data taken from patent US12503438B2, “Compounds for the treatment of kinase-dependent disorders” (Exelixis, Inc., priority 2019, dated 2025).

Experiments:
Format in all cases: cell-based
[1] = biological target: KDR (Homo sapiens, UniProt P35968); assay: KDR autophosphorylation ELISA in HUVEC cells; parameters: endogenous in cells; host or cells: HUVEC (Lonza #C2519A); conditions: cellular activity, VEGF165-stimulated, phospho-KDR ELISA
Procedure: Human umbilical vein endothelial cells or HUVEC (Lonza #C2519A) were seeded at 2×10^4 cells/well onto 96-well plates (Corning #3904), in EGM-2 growth medium (Lonza #CC-3162) containing 1% Penicillin Streptomycin (Thermo Fisher #15140-122). HUVEC cells were incubated at 37° C., 5% CO2 for 24 h and then starved for 24 h in serum-free EBM-2 basal medium (Lonza #CC-3156) containing 1% Penicillin Streptomycin. Test compounds were serially diluted to produce an 8-point dose curve in fresh serum-free medium to a final concentration of 0.3% DMSO (vehicle) and added to the cells and incubated for 1 h. Cells were then stimulated with 100 ng/mL recombinant human VEGF165 (R&D Systems #293-VE-500) for 5 min, washed with cold PBS, and immediately lysed with 130 μL of cold 1× lysis buffer [20 mM Tris, 137 mM sodium chloride, 2 mM EDTA, 10% glycerol, 1% NP-40 alternative, 1 mM activated sodium orthovanadate, 1 mM PefaBloc SC (Sigma-Aldrich #11429868001), protease/phosphatase inhibitor tablet (Thermo Fisher #A32959)]. Lysates were collected and 100 μL/well added into the human phospho-KDR DuoSet IC ELISA (R&D Systems #DYC1766-2). Assay was performed according to manufacturer's instructions and sample phospho-KDR concentrations were extrapolated using human phospho-KDR control (R&D Systems #841421) as a standard. Positive control wells (100% activity) contained VEGF165-stimulated, DMSO-treated cell lysates. Negative control wells (0% activity) contained non-stimulated cell lysates. IC50 values were calculated by nonlinear regression analysis using a 4-parameter logistic curve fit in ActivityBase XE (IDBS).

[2] = biological target: T1, AXL (Homo sapiens, UniProt P30530); assay: AXL autophosphorylation ELISA in A-172 cells; conditions: cellular activity, Gas6-stimulated, phospho-AXL ELISA
T1 construct: endogenous in cells; host or cells: A-172 glioblastoma cells (ATCC #CRL-1620)
T1 sequence (P30530 26-894): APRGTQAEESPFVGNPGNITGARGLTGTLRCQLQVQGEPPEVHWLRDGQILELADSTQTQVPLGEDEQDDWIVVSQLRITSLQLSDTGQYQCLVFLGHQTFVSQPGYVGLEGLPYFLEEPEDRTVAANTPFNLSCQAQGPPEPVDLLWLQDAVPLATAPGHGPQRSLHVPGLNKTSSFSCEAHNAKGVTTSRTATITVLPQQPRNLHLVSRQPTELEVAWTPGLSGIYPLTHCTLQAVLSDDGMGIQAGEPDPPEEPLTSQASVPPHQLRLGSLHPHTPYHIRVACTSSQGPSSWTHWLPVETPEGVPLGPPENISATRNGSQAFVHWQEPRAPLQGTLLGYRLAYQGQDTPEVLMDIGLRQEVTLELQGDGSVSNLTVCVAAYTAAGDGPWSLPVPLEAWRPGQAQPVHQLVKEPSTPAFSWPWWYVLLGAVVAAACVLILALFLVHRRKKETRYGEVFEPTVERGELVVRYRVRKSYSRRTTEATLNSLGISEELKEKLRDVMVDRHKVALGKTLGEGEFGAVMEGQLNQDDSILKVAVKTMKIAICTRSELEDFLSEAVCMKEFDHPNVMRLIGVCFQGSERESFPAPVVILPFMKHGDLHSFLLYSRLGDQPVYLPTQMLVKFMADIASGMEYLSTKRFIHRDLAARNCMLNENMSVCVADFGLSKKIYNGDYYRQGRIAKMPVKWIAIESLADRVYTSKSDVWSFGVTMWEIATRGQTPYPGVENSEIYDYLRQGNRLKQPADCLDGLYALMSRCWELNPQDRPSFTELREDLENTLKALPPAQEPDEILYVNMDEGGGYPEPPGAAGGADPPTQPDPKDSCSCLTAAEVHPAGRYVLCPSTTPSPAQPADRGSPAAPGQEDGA
Procedure: A-172 glioblastoma cells (ATCC #CRL-1620) were seeded at 2.5×10^5 cells/well onto 24-well plates (Greiner #662165), in DMEM (Thermo Fisher #11995-040) containing 10% FBS (Thermo Fisher #26140-079), 1% MEM NEAA (Thermo Fisher #11140-050), 1% GlutaMax (Thermo Fisher #35050-061) and 1% Penicillin Streptomycin (Thermo Fisher #15140-122). A-172 cells were incubated at 37° C., 5% CO2 for 24 h and then starved for 24 h in serum-free medium. Test compounds were serially diluted to produce an 8-point dose curve in fresh serum-free medium to a final concentration of 0.3% DMSO (vehicle) and added to the cells and incubated for 1 h. Cells were then stimulated with 1 μg/mL recombinant human Gas6 (R&D Systems #885-GSB-500) for 15 min, washed with cold PBS and immediately lysed with 150 μL of cold 1× lysis buffer [20 mM Tris, 137 mM sodium chloride, 2 mM EDTA, 10% glycerol, 1% NP-40 alternative, 1 mM activated sodium orthovanadate, 1 mM PefaBloc SC (Sigma-Aldrich #11429868001), protease/phosphatase inhibitor tablet (Thermo Fisher #A32959)]. Lysates were collected and 100 μL/well added into the human phospho-AXL DuoSet IC ELISA (R&D Systems #DYC2228-2). Assay was performed according to manufacturer's instructions and sample phospho-AXL concentrations were extrapolated using human phospho-AXL control (R&D Systems #841645) as a standard. Positive control wells (100% activity) contained Gas6-stimulated, DMSO-treated cell lysates. Negative control wells (0% activity) contained Gas6-stimulated, reference inhibitor-treated cell lysates. IC50 values were calculated by nonlinear regression analysis using a 4-parameter logistic curve fit in ActivityBase XE (IDBS).

[3] = biological target: Met (Homo sapiens, UniProt P08581); assay: Met autophosphorylation ELISA in PC-3 cells; parameters: endogenous in cells; host or cells: PC-3 prostate cancer cells (ATCC #CRL-1435); conditions: cellular activity, HGF-stimulated, phospho-Met ELISA, read-out: c-Met IC50
Procedure: PC-3 prostate cancer cells (ATCC #CRL-1435) were seeded at 4×10^4 cells/well onto 24-well plates (Greiner #662165), in DMEM (Thermo Fisher #11995-040) containing 10% FBS (Thermo Fisher #26140-079), 1% MEM NEAA (Thermo Fisher #11140-050), 1% GlutaMax (Thermo Fisher #35050-061), and 1% Penicillin Streptomycin (Thermo Fisher #15140-122). PC-3 cells were incubated at 37° C., 5% CO2 for 24 h and then starved for 3 h in serum-free medium. Test compounds were serially diluted to produce an 8-point dose curve in fresh serum-free medium to a final concentration of 0.3% DMSO (vehicle) and added to the cells and incubated for 1 h. Cells were then stimulated with 100 ng/mL recombinant human HGF (R&D Systems #294-HG-250) for 10 min, washed with cold PBS and immediately lysed with 130 μL of cold 1× lysis buffer [20 mM Tris, 137 mM sodium chloride, 2 mM EDTA, 10% glycerol, 1% NP-40 alternative, 1 mM activated sodium orthovanadate, 1 mM PefaBloc SC (Sigma-Aldrich #11429868001), protease/phosphatase inhibitor tablet (Thermo Fisher #A32959)]. Lysates were clarified by centrifugation and 100 μL/well added into the PathScan phospho-Met (panTyr) Sandwich ELISA (Cell Signaling Technology #7333). Assay was performed according to manufacturer's instructions. Positive control wells (100% activity) contained HGF-stimulated, DMSO-treated cell lysates. Negative control wells (0% activity) contained HGF-stimulated, reference inhibitor-treated cell lysates. IC50 values were calculated by nonlinear regression analysis using a 4-parameter logistic curve fit in ActivityBase XE (IDBS).

Sequence of Met (P08581 25-1390): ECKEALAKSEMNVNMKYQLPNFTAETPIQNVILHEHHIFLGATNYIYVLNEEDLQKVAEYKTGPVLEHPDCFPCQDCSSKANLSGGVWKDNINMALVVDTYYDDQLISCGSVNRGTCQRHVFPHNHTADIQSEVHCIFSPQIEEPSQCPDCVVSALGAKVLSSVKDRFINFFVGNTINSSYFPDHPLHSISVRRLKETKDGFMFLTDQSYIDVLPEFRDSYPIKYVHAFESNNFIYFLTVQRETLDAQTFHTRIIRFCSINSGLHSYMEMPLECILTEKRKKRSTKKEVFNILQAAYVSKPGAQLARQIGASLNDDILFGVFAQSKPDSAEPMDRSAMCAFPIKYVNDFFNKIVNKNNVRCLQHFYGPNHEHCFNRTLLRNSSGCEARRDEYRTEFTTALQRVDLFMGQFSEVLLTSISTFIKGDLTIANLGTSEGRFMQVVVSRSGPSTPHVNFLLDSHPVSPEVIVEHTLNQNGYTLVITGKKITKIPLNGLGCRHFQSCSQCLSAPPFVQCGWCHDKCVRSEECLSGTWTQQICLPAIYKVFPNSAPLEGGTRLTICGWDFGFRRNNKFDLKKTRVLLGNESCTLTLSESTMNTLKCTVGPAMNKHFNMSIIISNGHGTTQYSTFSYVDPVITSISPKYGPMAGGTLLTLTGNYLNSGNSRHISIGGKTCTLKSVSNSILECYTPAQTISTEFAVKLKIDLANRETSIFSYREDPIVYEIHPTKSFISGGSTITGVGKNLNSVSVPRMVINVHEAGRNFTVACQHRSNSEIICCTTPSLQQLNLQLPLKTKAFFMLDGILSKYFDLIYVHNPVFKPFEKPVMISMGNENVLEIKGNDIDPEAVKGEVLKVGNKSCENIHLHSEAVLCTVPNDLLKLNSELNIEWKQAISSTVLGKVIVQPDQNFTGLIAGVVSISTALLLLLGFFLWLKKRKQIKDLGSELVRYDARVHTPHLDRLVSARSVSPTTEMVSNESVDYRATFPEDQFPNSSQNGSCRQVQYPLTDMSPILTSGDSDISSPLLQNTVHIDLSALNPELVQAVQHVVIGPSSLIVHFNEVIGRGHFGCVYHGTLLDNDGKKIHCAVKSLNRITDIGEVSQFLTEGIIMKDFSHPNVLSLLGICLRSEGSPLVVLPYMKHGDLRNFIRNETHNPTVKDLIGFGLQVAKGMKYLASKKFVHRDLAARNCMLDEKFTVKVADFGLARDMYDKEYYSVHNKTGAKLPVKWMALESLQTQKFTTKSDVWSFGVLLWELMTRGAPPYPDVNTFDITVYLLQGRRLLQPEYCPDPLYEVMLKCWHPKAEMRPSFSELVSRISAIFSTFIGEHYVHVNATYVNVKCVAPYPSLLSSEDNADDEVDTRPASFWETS
Sequence of KDR (P35968 20-1356): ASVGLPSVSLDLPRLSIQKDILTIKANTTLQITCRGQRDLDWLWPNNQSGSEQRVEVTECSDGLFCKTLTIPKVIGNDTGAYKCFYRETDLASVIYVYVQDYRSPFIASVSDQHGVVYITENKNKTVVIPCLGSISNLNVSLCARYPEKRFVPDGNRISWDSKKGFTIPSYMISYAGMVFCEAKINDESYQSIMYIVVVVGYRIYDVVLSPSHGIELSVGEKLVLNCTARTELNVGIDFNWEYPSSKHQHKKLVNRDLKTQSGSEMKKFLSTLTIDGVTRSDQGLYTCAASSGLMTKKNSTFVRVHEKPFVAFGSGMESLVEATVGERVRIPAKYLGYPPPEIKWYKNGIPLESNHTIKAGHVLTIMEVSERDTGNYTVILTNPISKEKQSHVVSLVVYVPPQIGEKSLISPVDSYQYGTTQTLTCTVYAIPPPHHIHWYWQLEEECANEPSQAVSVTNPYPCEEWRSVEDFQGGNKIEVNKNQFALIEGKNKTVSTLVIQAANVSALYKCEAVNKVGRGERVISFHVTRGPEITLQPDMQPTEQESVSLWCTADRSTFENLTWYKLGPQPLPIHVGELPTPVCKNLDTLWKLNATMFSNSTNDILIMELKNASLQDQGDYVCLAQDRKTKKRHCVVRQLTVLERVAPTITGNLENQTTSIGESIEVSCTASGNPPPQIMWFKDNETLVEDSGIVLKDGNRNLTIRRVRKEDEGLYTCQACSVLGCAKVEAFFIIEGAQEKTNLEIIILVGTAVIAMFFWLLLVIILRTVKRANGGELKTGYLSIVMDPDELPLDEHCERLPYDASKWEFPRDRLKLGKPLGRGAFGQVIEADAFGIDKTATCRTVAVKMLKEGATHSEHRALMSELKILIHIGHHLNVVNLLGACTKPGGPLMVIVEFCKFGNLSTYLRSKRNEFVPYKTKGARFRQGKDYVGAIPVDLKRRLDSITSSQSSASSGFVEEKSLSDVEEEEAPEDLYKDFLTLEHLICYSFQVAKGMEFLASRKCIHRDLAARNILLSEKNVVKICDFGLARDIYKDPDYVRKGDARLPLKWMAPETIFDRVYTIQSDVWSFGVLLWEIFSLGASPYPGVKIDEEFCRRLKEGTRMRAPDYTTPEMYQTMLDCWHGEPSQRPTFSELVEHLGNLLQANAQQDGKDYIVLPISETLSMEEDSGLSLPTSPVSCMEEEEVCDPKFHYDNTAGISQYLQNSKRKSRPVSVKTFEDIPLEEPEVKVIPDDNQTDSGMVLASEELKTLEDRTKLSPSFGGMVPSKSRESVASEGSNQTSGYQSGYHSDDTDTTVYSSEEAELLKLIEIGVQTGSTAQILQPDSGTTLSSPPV

Structure (SMILES)	IC50 [1] [nM]	IC50 [2] [nM]	IC50 [3] [nM]
O=C(Nc1ccc(F)cc1)C1(C(=O)Nc2ccc(Oc3ccnc4cc(C5CCOC5)ccc34)cc2)CC1 (single isomer, unassigned) [Compound 88, 1-N′-(4-Fluorophenyl)-1-N-[4-[7-[oxolan-3-yl]quinolin-4-yl]oxyphenyl]cyclopropane-1,1-dicarboxamide]	> 300	> 300	10 to 100
O=C(Nc1ccc(F)cc1)C1(C(=O)Nc2ccc(Oc3ccnc4cc(C5CCOC5)ccc34)cc2)CC1 (single isomer, unassigned) [Compound 89, 1-N′-(4-Fluorophenyl)-1-N-[4-[7-[oxolan-3-yl]quinolin-4-yl]oxyphenyl]cyclopropane-1,1-dicarboxamide]	> 300	> 300	10 to 100
Cc1cc(-c2ccc3c(Oc4ccc(NC(=O)C5(C(=O)Nc6ccc(F)cc6)CC5)cc4)ccnc3c2)cc(C)n1 [Compound 32, 1-N-[4-[7-(2,6-Dimethylpyridin-4-yl)quinolin-4-yl]oxyphenyl]-1-N′-(4-fluorophenyl)cyclopropane-1,1-dicarboxamide]			10 to 100
O=C(Nc1ccc(F)cc1)C1(C(=O)Nc2ccc(Oc3ccnc4cc(-c5ccc(C(F)(F)F)nc5)ccc34)cc2)CC1 [Compound 35, 1-N′-(4-Fluorophenyl)-1-N-[4-[7-[6-(trifluoromethyl)pyridin-3-yl]quinolin-4-yl]oxyphenyl]cyclopropane-1,1-dicarboxamide]			100 to 300
O=C(Nc1ccc(F)cc1)C1(C(=O)Nc2ccc(Oc3ccnc4cc(-c5ccnc(C(F)(F)F)c5)ccc34)cc2)CC1 [Compound 36, 1-N′-(4-Fluorophenyl)-1-N-[4-[7-[2-(trifluoromethyl)pyridin-4-yl]quinolin-4-yl]oxyphenyl]cyclopropane-1,1-dicarboxamide]			100 to 300
Cc1ccc(-c2ccc3c(Oc4ccc(NC(=O)C5(C(=O)Nc6ccc(F)cc6)CC5)cc4)ccnc3c2)cn1 [Compound 37, 1-N′-(4-Fluorophenyl)-1-N-[4-[7-(6-methylpyridin-3-yl)quinolin-4-yl]oxyphenyl]cyclopropane-1,1-dicarboxamide]	10 to 100	100 to 300	10 to 100
O=C(Nc1ccc(F)cc1)C1(C(=O)Nc2ccc(Oc3ccnc4cc(-c5ccc(C6CC6)nc5)ccc34)cc2)CC1 [Compound 43, 1-N-[4-[7-(6-Cyclopropylpyridin-3-yl)quinolin-4-yl]oxyphenyl]-1-N′-(4-fluorophenyl)cyclopropane-1,1-dicarboxamide]	10 to 100	100 to 300	100 to 300
O=C(Nc1ccc(F)cc1)C1(C(=O)Nc2ccc(Oc3ccnc4cc(-c5cnc6[nH]ccc6c5)ccc34)cc2)CC1 [Compound 44, 1-N′-(4-Fluorophenyl)-1-N-[4-[7-(1H-pyrrolo[2,3-b]pyridin-5-yl)quinolin-4-yl]oxyphenyl]cyclopropane-1,1-dicarboxamide]			100 to 300
O=C(Nc1ccc(F)cc1)C1(C(=O)Nc2ccc(Oc3ccnc4cc(-c5cncc(C(F)(F)F)c5)ccc34)cc2)CC1 [Compound 48, 1-N′-(4-Fluorophenyl)-1-N-[4-[7-[5-(trifluoromethyl)pyridin-3-yl]quinolin-4-yl]oxyphenyl]cyclopropane-1,1-dicarboxamide]			100 to 300
O=C(Nc1ccc(F)cc1)C1(C(=O)Nc2ccc(Oc3ccnc4cc(-c5ccc(N6CCCC6)nc5)ccc34)cc2)CC1 [Compound 49, 1-N′-(4-Fluorophenyl)-1-N-[4-[7-(6-pyrrolidin-1-ylpyridin-3-yl)quinolin-4-yl]oxyphenyl]cyclopropane-1,1-dicarboxamide]		100 to 300	100 to 300
O=C(Nc1ccc(F)cc1)C1(C(=O)Nc2ccc(Oc3ccnc4cc(-c5cc(C(F)(F)F)[nH]n5)ccc34)cc2)CC1 [Compound 100, 1-N′-(4-Fluorophenyl)-1-N-[4-[7-[5-(trifluoromethyl)-1H-pyrazol-3-yl]quinolin-4-yl]oxyphenyl]cyclopropane-1,1-dicarboxamide]			100 to 300
Cc1cc2c(Oc3ccc(NC(=O)C4(C(=O)Nc5ccc(F)cc5)CC4)cc3)ccnc2cc1-c1cn[nH]c1 [Compound 106, 1-N′-(4-Fluorophenyl)-1-N-[4-[6-methyl-7-(1H-pyrazol-4-yl)quinolin-4-yl]oxyphenyl]cyclopropane-1,1-dicarboxamide]	≤ 10	10 to 100	10 to 100
CN(C(=O)C1(C(=O)Nc2ccc(Oc3ccnc4cc(-c5cnn(C(F)F)c5)ccc34)cc2)CC1)c1ccc(F)cc1 [Compound 126, 1-N-[4-[7-[1-(Difluoromethyl)pyrazol-4-yl]quinolin-4-yl]oxyphenyl]-1-N′-(4-fluorophenyl)-1-N′-methylcyclopropane-1,1-dicarboxamide]			> 300
